This note sets out measurements from ChEMBL document CHEMBL1135096, “4-Aryl/cycloalkyl-5-phenyloxazole derivatives as selective COX-2 inhibitors” (Bioorg Med Chem Lett, 2002).

Experiment [1] concerns the target Prostaglandin G/H synthase 1 (Homo sapiens, UniProt P23219).
Description: In vitro inhibitory activity towards human platelet recombinant Prostaglandin G/H synthase 1
The target in experiment [2] is T1, Prostaglandin G/H synthase 2 (Homo sapiens, UniProt P35354).
T1 sequence (P35354 whole entry): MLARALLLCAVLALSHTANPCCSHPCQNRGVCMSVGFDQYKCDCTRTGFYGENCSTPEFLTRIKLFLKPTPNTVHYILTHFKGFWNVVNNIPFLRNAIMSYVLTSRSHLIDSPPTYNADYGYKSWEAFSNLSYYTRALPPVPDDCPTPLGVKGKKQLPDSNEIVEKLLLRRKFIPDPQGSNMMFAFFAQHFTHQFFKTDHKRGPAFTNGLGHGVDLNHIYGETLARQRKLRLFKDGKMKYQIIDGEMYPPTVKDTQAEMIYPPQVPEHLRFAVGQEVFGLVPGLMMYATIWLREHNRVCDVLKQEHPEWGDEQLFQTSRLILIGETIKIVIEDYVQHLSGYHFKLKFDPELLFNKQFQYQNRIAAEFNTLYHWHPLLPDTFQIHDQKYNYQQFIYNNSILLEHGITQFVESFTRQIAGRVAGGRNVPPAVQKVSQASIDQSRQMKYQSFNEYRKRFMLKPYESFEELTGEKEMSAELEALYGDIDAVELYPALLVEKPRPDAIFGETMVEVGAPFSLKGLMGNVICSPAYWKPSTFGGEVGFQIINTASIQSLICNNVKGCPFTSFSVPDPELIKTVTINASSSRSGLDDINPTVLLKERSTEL
Description: In vitro inhibitory activity towards human recombinant Prostaglandin G/H synthase 2 enzyme

Sequence of Prostaglandin G/H synthase 1 (P23219 whole entry): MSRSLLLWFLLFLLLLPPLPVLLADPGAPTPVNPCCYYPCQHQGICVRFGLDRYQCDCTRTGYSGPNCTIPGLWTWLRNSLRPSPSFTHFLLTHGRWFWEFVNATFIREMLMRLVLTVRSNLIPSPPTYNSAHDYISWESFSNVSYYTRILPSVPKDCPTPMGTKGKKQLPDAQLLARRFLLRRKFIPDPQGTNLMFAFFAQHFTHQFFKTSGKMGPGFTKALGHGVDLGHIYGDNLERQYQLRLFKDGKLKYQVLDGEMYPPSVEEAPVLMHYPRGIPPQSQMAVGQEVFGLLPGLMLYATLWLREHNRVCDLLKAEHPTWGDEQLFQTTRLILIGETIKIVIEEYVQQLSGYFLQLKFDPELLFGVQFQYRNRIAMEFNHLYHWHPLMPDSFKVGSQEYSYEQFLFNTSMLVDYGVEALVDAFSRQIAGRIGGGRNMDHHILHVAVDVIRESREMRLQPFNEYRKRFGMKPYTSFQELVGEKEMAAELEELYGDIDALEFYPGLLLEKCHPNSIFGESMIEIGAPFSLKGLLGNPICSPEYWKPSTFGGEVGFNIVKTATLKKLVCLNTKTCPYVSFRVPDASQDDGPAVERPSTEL

One may read the IC50 as the point on the concentration scale where inhibition reaches its midpoint. `Cc1nc(C2CCCCC2)c(-c2ccc(S(C)(=O)=O)cc2)o1`: in experiment [1], the IC50 is over 100 µM.
For `CS(=O)(=O)c1ccc(-c2oc(-c3ccccc3)nc2C2CCCCC2)cc1`, the IC50 in experiment [2] and in experiment [1] was over 100 µM throughout.
As to `Cc1nc(C2CCCCCC2)c(-c2ccc(S(C)(=O)=O)cc2)o1`, the half-maximal inhibitory concentration (IC50) in experiment [1] was over 100 µM.
On to `Cc1nc(-c2ccc(F)cc2)c(-c2ccc(S(N)(=O)=O)cc2)o1`, for which the IC50 in experiment [2] amounted to 0.024 µM; in experiment [1] it was 4.7 µM.
As for `Cc1nc(-c2ccc(S(C)(=O)=O)cc2)c(-c2ccc(Cl)s2)o1`, inhibition in experiment [1] was half-maximal at 93 µM (IC50).
As to `Cc1nc(C2CCCC2)c(-c2ccc(S(C)(=O)=O)cc2)o1`, the IC50 in experiment [2] was 18 µM; in experiment [1] it was over 100 µM.
As to `Cc1nc(-c2ccc(S(C)(=O)=O)cc2)c(-c2ccc(F)cc2)o1`, the IC50 in experiment [2] was 2.1 µM; in experiment [1], over 100 µM.
For the compound `Cc1nc(C2CCCCC2)c(-c2ccc(S(N)(=O)=O)cc2)o1`, it took 47.5 µM to reach half-maximal inhibition in experiment [1] (IC50).
For the compound `CCc1nc(C2CCCCC2)c(-c2ccc(S(C)(=O)=O)cc2)o1`, the figures for the IC50 in experiment [2] and in experiment [1] were 0.27 µM and 60 µM, respectively.
Turning to `CCS(=O)(=O)c1ccc(-c2oc(C)nc2-c2ccc(F)cc2)cc1`, the IC50 is 38 µM in experiment [2] and over 100 µM in experiment [1].
The matching figures for `CCc1ccc(-c2nc(C)oc2-c2ccc(S(C)(=O)=O)cc2)s1`: 0.14 µM and over 100 µM.
The matching figures for `Cc1nc(-c2ccccc2)c(-c2ccc(S(C)(=O)=O)cc2)o1`: 0.09 µM and over 100 µM.
The matching figures for `Cc1nc(-c2ccc(F)cc2)c(-c2ccc(S(C)(=O)=O)cc2)o1`: 0.07 µM and 42 µM.
For `CNS(=O)(=O)c1ccc(-c2oc(C)nc2C2CCCCC2)cc1`, the IC50 is 3.1 µM in experiment [2] and over 100 µM in experiment [1].
